Laboratory results reported in patent publication US7314709B2, “Compositions and methods for detecting and quantifying COX-2 activity by lipoamino acid metabolism” (Vanderbilt University, priority 2002, dated 2008).
Where a chain is given by its changes, count along the chain named.

How the values were obtained:
Assay type in all cases: biochemical, murine
mCOX-2 E524L = molecular target: T1, mCOX-2 E524L (Mus musculus, UniProt Q05769, E510L); assay: Initial O2 uptake rate with constriction site mutant E524L; conditions: 200 nM enzyme; AA 100 μM, NAGly 200 μM
T1 construct: made in house; host or cells: Sf-9 insect cells
T1 sequence (Q05769 18-604 E510L): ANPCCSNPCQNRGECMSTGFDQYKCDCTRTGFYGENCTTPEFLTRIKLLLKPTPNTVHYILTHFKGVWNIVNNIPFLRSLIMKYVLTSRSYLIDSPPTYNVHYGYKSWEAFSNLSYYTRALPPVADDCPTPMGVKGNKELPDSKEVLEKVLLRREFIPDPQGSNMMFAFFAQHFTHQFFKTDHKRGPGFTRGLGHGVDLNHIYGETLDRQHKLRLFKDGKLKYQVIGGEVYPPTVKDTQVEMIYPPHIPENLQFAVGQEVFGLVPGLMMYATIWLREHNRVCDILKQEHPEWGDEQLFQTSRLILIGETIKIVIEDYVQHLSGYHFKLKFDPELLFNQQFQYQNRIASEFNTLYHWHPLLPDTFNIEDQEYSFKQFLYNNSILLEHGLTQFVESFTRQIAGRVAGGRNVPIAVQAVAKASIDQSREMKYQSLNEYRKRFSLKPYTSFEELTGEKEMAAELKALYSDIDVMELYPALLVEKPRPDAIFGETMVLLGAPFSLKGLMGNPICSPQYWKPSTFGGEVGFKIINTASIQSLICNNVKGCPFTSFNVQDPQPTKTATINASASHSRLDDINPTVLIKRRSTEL
Method: (§1) Enzymology: COX-1 was purified from ram seminal vesicles as previously described. Site-directed mutagenesis of COX-2 was performed as described previously. Recombinant COX-2 enzymes were expressed in Sf-9 insect cells and purified by ion-exchange chromatography and gel filtration as previously described. Apo-enzymes were reconstituted with hematin prior to activity assays.
(§2) COX activity was quantified as previously described. Initial reaction velocity data were obtained from the linear portion of the oxygen uptake curves. Oxygraph data were analyzed by nonlinear regression with Enzyme Kinetics 1.5 software (Trinity Software, Campton, N.H.).
At the bottom of the substrate (and inhibitor) binding site, there is a hydrogen bonding network comprised of residues Arg-120, Tyr-355, and Glu524, that form a constriction which is present in both COX isoforms. These residues contribute to the binding of the carboxylate in both AA and NSAIDs, and the glycerol moiety of 2-AG [12,23-27].

mCOX-2 R513H = molecular target: T2, mCOX-2 R513H (Mus musculus, UniProt Q05769, R499H); assay: Initial O2 uptake rate with side pocket mutant R513H; conditions: 200 nM enzyme; AA 100 μM, NAGly 200 μM
T2 construct: made in house; host or cells: Sf-9 insect cells
T2 sequence (Q05769 18-604 R499H): T1 sequence (Q05769 18-604 E510L) with R482H, L493E
Method: as §1, §2
(§3) Previous studies have identified residues in the side pocket of COX-2, especially Arg-513, as critical determinants of 2-AG oxygenation by COX-2 [13]. […] (FIG. 5).

mCOX-2 Y385F = molecular target: T3, mCOX-2 Y385F (Mus musculus, UniProt Q05769, Y371F); assay: O2 uptake with mCOX-2 site-directed mutant Y385F
T3 construct: made in house; host or cells: Sf-9 insect cells
T3 sequence (Q05769 18-604 Y371F): T1 sequence (Q05769 18-604 E510L) with Y354F, L493E
Method: as §1, §2
AA binds in the COX active site with the […] near Gly-533 [20,27].

mCOX-2 R513H/V523I = molecular target: T4, mCOX-2 R513H/V523I (Mus musculus, UniProt Q05769, R499H/V509I); assay: Initial O2 uptake rate with side pocket double mutant R513H/V523I; conditions: 200 nM enzyme; AA 100 μM, NAGly 200 μM
T4 construct: made in house; host or cells: Sf-9 insect cells
T4 sequence (Q05769 18-604 R499H/V509I): T1 sequence (Q05769 18-604 E510L) with R482H, V492I, L493E
Method: as §1, §2, §3

`CCCCC/C=C\C/C=C\C/C=C\C/C=C\CCCC(=O)O` [AA, arachidonic acid] was tested, and the “reduction in initial rate of oxygenation compared with wild-type” value (mCOX-2 E524L) was less than 3 fold, the “effect of mutation on oxygenation rate” value (mCOX-2 R513H) was “did not greatly affect” and the “substrate oxidation by Y385F” value (mCOX-2 Y385F) was “fails to oxidize”. The “effect of mutation on oxygenation rate” value (mCOX-2 R513H/V523I) was “did not greatly affect”.
